# Publication PMC6941357, “An in vitro toolbox to accelerate anti-malarial drug discovery and development” (Malaria Journal, 2020)
# Several values for one entry are separate records, joined by “and”; a condition that tells them apart may be missing. Equal values may be shown once. Read-outs that look alike come from different tables or passages of the source. Marks after values point to notes of the source that are not given here.
# Key:
# [1] = Ionization constants by potentiometric titration; format: physicochemical; settings: mean ± SD, n = 3 titrations; for pKa: aqueous solution (DMSO stock diluted 1:10 with water), read-out: Measured pKa
# Description: The autotitrator was controlled by Tiamo software (Version 1.3). pH measurements were conducted using a Metrohm LL Micro glass electrode which was calibrated on the day of use with calibration standards at pH 2, 4, 7 and 10. All reagents were standardized (directly or indirectly) against potassium hydrogen phthalate (Sigma-Aldrich, A.C.S. Acidimetric Standard). Titrant solutions were protected from carbon dioxide absorption by flushing with nitrogen before sealing or by the incorporation of a drying tube filled with self-indicating soda lime into the titration reaction vessel set-up.
# Aliquots were introduced directly into the titration vessel and diluted 1:10 with water (typical final compound concentration of 0.5 mM).
# [2] = biological target: T1, Albumax medium (lipid rich bovine serum albumin) (Bos taurus, UniProt P02769); assay: Binding in Albumax medium via ultracentrifugation; format: in vitro ADME; settings: for fraction unbound at […], 500 ng/mL: bovine
# T1 construct: purchased Gibco, Thermo Fisher Scientific
# T1 sequence (P02769 25-607): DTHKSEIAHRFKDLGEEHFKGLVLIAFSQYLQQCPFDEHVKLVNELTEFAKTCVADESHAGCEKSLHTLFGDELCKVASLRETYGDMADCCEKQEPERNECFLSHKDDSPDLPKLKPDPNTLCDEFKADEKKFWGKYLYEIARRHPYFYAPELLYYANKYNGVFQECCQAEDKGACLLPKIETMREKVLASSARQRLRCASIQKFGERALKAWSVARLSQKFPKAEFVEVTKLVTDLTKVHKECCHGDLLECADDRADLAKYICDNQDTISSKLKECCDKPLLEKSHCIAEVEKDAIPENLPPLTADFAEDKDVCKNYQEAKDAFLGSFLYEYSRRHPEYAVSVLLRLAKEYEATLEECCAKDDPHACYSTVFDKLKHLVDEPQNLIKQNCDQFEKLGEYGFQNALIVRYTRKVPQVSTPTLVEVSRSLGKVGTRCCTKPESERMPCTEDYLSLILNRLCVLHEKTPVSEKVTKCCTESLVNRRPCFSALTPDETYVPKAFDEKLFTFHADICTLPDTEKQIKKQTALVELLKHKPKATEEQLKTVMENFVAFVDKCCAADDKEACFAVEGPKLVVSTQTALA
# Procedure, shortened: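 Unbound fraction (fu) taken as protein-free supernate concentration over total concentration after ultracentrifuging compound-spiked Albumax at 37 °C (5% or 10% CO2, or air). Analysis used 1:1 mixing with the opposite blank matrix against a common pH 7.4 calibration; degradation judged by start versus end Ctotal.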
# [3] = Solubility in biorelevant media; settings: for solubility / solubility at 1 h: thermodynamic from solid
# Procedure, shortened: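 LC–MS quantification of supernatants, after two centrifugations, in triplicate against calibration standards. Media: FaSSGF sampled at 1 h; FaSSIF-V2, FeSSIF-V2 and pH 7.4 PBS sampled at 5–6 h; all at 37 °C on an orbital mixer at 600 rpm.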
# [4] = tested on: human liver microsomes; assay: in vitro; settings: for HLM CLint: human, microsomes
# Procedure, shortened: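 Intrinsic clearance (µL/min/mg protein) came from the first-order substrate-depletion rate in human liver microsomes, using only the initial log-linear phase where kinetics deviated. Samples were quenched at 2, 5, 15, 30 and 60 min and quantified by LC–MS. Unbound CLint was obtained by dividing by microsomal fu.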
# [5] = physchem; settings: for An (absorption number): Peff × tres/R, minimum 1; for Ssi (estimated solubility in the small intestine): based on measured FaSSIF solubility; for Permeability classification: based on ref 80 and control compounds; for Predicted human Peff: from Caco-2 Papp via calibration plot; for solubility: FaSSIF
# From the text: Predicted Peff values were obtained from a calibration plot of literature Peff values vs measured Caco-2 Papp using either buffer or plasma as the transport medium (see Results section).
# [6] = biological target: T2, CYP1A2 (Homo sapiens, UniProt P05177); assay: in vitro
# T2 sequence (P05177 1-516): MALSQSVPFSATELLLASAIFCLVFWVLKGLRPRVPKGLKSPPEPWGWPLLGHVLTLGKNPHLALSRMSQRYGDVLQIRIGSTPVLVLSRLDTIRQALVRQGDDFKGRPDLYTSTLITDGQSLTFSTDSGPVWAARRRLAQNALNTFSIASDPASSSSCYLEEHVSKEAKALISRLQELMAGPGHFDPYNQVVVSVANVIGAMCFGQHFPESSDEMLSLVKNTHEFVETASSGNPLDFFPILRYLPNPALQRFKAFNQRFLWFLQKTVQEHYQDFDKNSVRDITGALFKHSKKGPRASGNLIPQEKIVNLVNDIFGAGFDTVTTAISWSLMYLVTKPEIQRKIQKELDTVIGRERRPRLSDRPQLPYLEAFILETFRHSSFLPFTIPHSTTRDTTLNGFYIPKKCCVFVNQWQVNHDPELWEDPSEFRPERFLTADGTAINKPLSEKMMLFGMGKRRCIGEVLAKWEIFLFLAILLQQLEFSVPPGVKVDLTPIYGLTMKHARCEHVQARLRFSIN
# Procedure, shortened: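 Activity of each isoform followed via a specific probe-substrate metabolite formed in human liver microsomes; reactions quenched with ice-cold acetonitrile and metabolite measured by LC–MS. Percent inhibition taken versus metabolite formation without inhibitor; Km from metabolite formation rate (pmol/min/mg protein) across substrate concentrations.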
# [7] = FaSSGF, 37 °C, fassgf or other biorelevant
# [8] = phosphate buffered saline pH 7.4, 37 °C, pH 7.4, aqueous buffer
Compound,An (absorption number) [5],Permeability classification [5],Predicted human Peff [5],CYP1A2 % inhibition at max conc ([6]; microsomes),"solubility at 1 h [3, 7]","solubility ([3]; FaSSIF-V2, 37 °C, fassif)","solubility ([3]; FeSSIF-V2, 37 °C, fessif)","solubility [3, 8]",solubility [5],SLAD ([5]; Ssi × V (500 mL) × Mp),IC50 [6],pKa ([1]; basic pKa (B)),"fraction unbound at […], 500 ng/mL ([2]; isolated protein, pH 7.4)",other results
CCN(CC)CCCNc1ccnc2cc(Cl)ccc12.Cl.Cl [AQ-13],2.2,High (> 85% absorption (high)),1.9 10^−4 cm/s,nmi,–,–,–,–,–,–,–,–,–,"Measured pKa ([1]; basic pKa (B)): 7.6 ± 0.2 (B); Fraction unbound, Albumax [2]: 0.85 ± 0.028; Solubility FaSSGF (1 h) ([3]; 37 °C): > 2000 µg/mL and > 6850 µM; Solubility FaSSIF-V2 (5–6 h) ([3]; 37 °C): > 2000 µg/mL and > 6850 µM; Solubility FeSSIF-V2 (5–6 h) ([3]; 37 °C): > 2000 µg/mL and > 6850 µM; Solubility PBS7.4 (5–6 h) ([3]; 37 °C): 1480 µg/mL and 5070 µM; Unbound CLint [4]: < 10.6^c µL/min/mg; HLM CLint [4]: < 7^b µL/min/mg; SLAD [5]: > 2250 mg; Ssi (estimated solubility in the small intestine) [5]: > 2000 µg/mL; IC50 ([6]; microsomes): > 20 µM"
C[C@H]1[C@H](OC(=O)CCC(=O)O)O[C@@H]2O[C@@]3(C)CC[C@H]4[C@H](C)CC[C@@H]1[C@@]24OO3 [Artesunate],1.0,Intermediate (50–84% absorption (intermediate)),0.66 10^−4 cm/s,–,835 µM,1690 µg/mL and 4390 µM,1720 µg/mL and 4490 µM,1680 µg/mL and 4370 µM,1690 µg/mL,845 mg,20 µM,–,–,"pKa ([1]; acidic pKa (A)): 4.7 ± 0.04; fraction unbound at […], 500 ng/mL ([2]; Albumax medium, pH 7.4, instability evident, estimate only): 0.14 ± 0.007; solubility ([3]; 37 °C, fassgf or other biorelevant): 321 µg/mL; Ki [6]: 12 µM"
Cc1cc(Nc2ccc(C(F)(F)F)nc2)n2nc(C(C)(F)F)nc2n1 [DSM421],3.9,High (> 85% absorption (high)),3.3 10^−4 cm/s,–,–,–,–,–,–,–,–,–,–,"Measured pKa ([1]; basic pKa (B)): no ionizations could be detected; Fraction unbound, Albumax [2]: 0.43 ± 0.020; Solubility PBS7.4 (5–6 h) ([3]; 37 °C): 85.5 µg/mL and 239 µM; Unbound CLint [4]: < 9.09^c µL/min/mg; HLM CLint [4]: < 7^b µL/min/mg; SLAD [5]: 182 mg; Ssi (estimated solubility in the small intestine) [5]: 93.0 µg/mL"
CC(C)(C)NCc1cc(C(C)(C)C)cc(-c2cnc(C(F)(F)F)c(F)c2)c1O [JPC3210],13,High (> 85% absorption (high)),11 10^−4 cm/s,nmi,–,–,–,–,–,–,–,–,–,"Measured pKa ([1]; acidic pKa (A)): 5.3 ± 0.04 (A); Fraction unbound, Albumax [2]: 0.21 ± 0.012; Solubility FaSSGF (1 h) ([3]; 37 °C): 213 µg/mL and 535 µM; Solubility FaSSIF-V2 (5–6 h) ([3]; 37 °C): 7.60 µg/mL and 19.1 µM; Solubility FeSSIF-V2 (5–6 h) ([3]; 37 °C): 131 µg/mL and 329 µM; Solubility PBS7.4 (5–6 h) ([3]; 37 °C): 0.800 µg/mL and 2.01 µM; Unbound CLint [4]: 328 µL/min/mg; HLM CLint [4]: 9.50 µL/min/mg; SLAD [5]: 51 mg; Ssi (estimated solubility in the small intestine) [5]: 7.60 µg/mL; IC50 ([6]; microsomes): > 20 µM"
C[C@H]1Cc2c([nH]c3cc(Cl)c(F)cc23)[C@@]2(N1)C(=O)Nc1ccc(Cl)cc12 [KAE609],13,High (> 85% absorption (high)),11 10^−4 cm/s,–,1540 µg/mL and 3940 µM,111 µg/mL and 284 µM,1240 µg/mL and 3180 µM,30.4 µg/mL and 77.9 µM,111 µg/mL,738 mg,4.5 µM,5.1 ± 0.02,0.044 ± 0.004,Ki [6]: 2.7 µM
CC1(C)c2nc(-c3ccc(F)cc3)c(Nc3ccc(F)cc3)n2CCN1C(=O)CN [KAF156],3.5,High (> 85% absorption (high)),2.9 10^−4 cm/s,nmi,> 2000 µg/mL and > 4850 µM,1600 µg/mL and 3880 µM,> 2000 µg/mL and > 4850 µM,560 µg/mL and 1360 µM,1600 µg/mL,2780 mg,–,8.4 ± 0.06,0.38 ± 0.017,"solubility ([3]; FaSSGF, FaSSIF-V2, FeSSIF-V2 and PBS pH 7.4, 37 °C, pH 7.4, aqueous buffer): 400 to 500 µg/mL"
CS(=O)(=O)c1ccc(-c2cnc(N)c(-c3ccc(C(F)(F)F)nc3)c2)cc1 [MMV048],4.5,High (> 85% absorption (high)),3.8 10^−4 cm/s,nmi,1200 µg/mL and 3040 µM,6.73 µg/mL and 17.1 µM,7.47 µg/mL and 19 µM,4.52 µg/mL and 11.5 µM,6.7 µg/mL,15 mg,> 20 µM,4 ± 0.07,0.46 ± 0.022,–
Cc1nc(Nc2ncc(N3CCN(C)[C@H](C)C3)c(Nc3cc(C)n(C)n3)n2)cc(C2CC2)c1F [MMV253],8.1,High (> 85% absorption (high)),6.8 10^−4 cm/s,nmi,> 2000 µg/mL and > 4300 µM,569 µg/mL and 1220 µM,> 2000 µg/mL and > 4300 µM,19 µg/mL and 40.8 µM,569 µg/mL,2300 mg,> 20 µM,8 ± 0.03,0.48 ± 0.026,–
CCc1nc(N)nc(N)c1-c1ccc(Cl)cc1 [Pyrimethamine],5.9,High (> 85% absorption (high)),4.9 10^−4 cm/s,nmi,> 2000 µg/mL and > 8000 µM,111 µg/mL and 446 µM,120 µg/mL and 483 µM,43 µg/mL and 175 µM,–,326 mg,> 20 µM,6.9 ± 0.1,0.46 ± 0.09,–
N#Cc1cc(NC(=O)[C@H]2c3ccccc3C(=O)N(CC(F)(F)F)[C@@H]2c2cccnc2)ccc1F [SJ733],2.2,High (> 85% absorption (high)),1.8 10^−4 cm/s,nmi,> 2000 µg/mL and > 4270 µM,101 µg/mL and 216 µM,119 µg/mL and 254 µM,115 µg/mL and 246 µM,101 µg/mL,109 mg,> 20 µM,4.1 ± 0.03,0.4 ± 0.04,–
COc1ncnc(NS(=O)(=O)c2ccc(N)cc2)c1OC [Sulfadoxine],2.2,High (> 85% absorption (high)),1.9 10^−4 cm/s,nmi,324 µg/mL and 1040 µM,858 µg/mL and 2770 µM,474 µg/mL and 1530 µM,> 1900 µg/mL and > 6400 µM,858 µg/mL,959 mg,> 20 µM,–,0.5 ± 0.03,pKa ([1]; acidic pKa (A)): 6.2 ± 0.01
